Tests used:
Type in all cases: cell-based, human
[1] = system: CALR cell surface expression in OVCAR8 cells; test: Flow cytometry analysis of Calreticulin (CALR) in OVCAR8 cells; conditions: OVCAR8, 12 hours; docetaxel 100 nM, carboplatin 100 nM, doxorubicin 50 nM; vs DMSO (FIG. 11A)
Procedure: Flow Cytometry Analysis: For cell surface protein staining, 1×10^5-1×10^6 cells were first incubated with Fc receptor blocking solution, Human TruStain FcXTM (BioLegend, Cat #422301) for 10 minutes at room temperature. Cells were washed once in FACS buffer (1×PBS, 1.0% bovine serum albumin (BSA) (Sigma) and 0.2% sodium azide (Sigma), and then incubated with antibodies (given below) for 30 minutes at 4° C. in the dark. Cells were also stained with 7-AAD (Biolegend, Cat #420404) for dead cell exclusion, and flow cytometry analysis was performed using a Bio-Rad ZE5 Cell Analyzer. Following antibodies used in this study (all antibodies were used at 1:50 dilution unless otherwise noted): APC anti-human CD24 (BioLegend, Cat #311118, clone ML5), PE anti-human CD24 (eBioscience, Cat #12-0247-42, clone SN3), APC anti-human CD47 (BioLegend, Cat #323124, clone CC2C6), APC anti-human § 2-microglobulin (BioLegend, Cat #395711, clone […]), PE anti-human HLA-A2 (MHC-class I) (BioLegend, Cat #343305, clone BB7.2), APC anti-human CD11b (BioLegend, Cat #982604, clone ICRF44), APC anti-mouse F4/80 antibody (BioLegend, Cat #123116, clone BM8), APC-streptavidin (Thermo Fisher Scientific, Cat #SA1005, 1:100 dilution), PE anti-Calreticulin (Invitrogen, Catalog #MA5-15382, 1:200 dilution). For intracellular staining, cells were fixed with 1% paraformaldehyde for 5 min and permeabilized using the True-Nuclear Transcription Factor Buffer Set (BioLegend, Cat #424401) before the addition of the antibody. Small Molecule Inhibitor and Drug Treatments: OVCAR8 or SKOV3 cells were treated for 3 days with bestatin (Ubenimex) (SelleckChem, Cat #S1591) at 5, 10 or 20 μM (as indicated in the figure legends), Tosedostat (Medchem Express, Cat #HY-14807) at 5 μM or 10 μM (as indicated in the figure legends) or ARM-1 (Medchem Express, Cat #HY-W027340) at 1, or 2 μM (as indicated in the figure legends). Inhibitors were replenished every 24 hours. DMSO (Sigma Aldrich, Cat #D8418) was used as a vehicle. […]

[2] = system: CD24 cell surface expression in OVCAR8 cells; test: CD24 flow cytometry analysis in OVCAR8 cells; conditions: OVCAR8; 3 days; bestatin 10 or 20 μM, tosedostat 5 or 10 μM, ARM1 1 or 2 μM; vs DMSO
Procedure: Flow Cytometry Analysis: For cell surface protein staining, 1×10^5-1×10^6 cells were first incubated with Fc receptor blocking solution, Human TruStain FcXTM (BioLegend, Cat #422301) for 10 minutes at room temperature. Cells were washed once in FACS buffer (1×PBS, 1.0% bovine serum albumin (BSA) (Sigma) and 0.2% sodium azide (Sigma), and then incubated with antibodies (given below) for 30 minutes at 4° C. in the dark. Cells were also stained with 7-AAD (Biolegend, Cat #420404) for dead cell exclusion, and flow cytometry analysis was performed using a Bio-Rad ZE5 Cell Analyzer. Following antibodies used in this study (all antibodies were used at 1:50 dilution unless otherwise noted): APC anti-human CD24 (BioLegend, Cat #311118, clone ML5), PE anti-human CD24 (eBioscience, Cat #12-0247-42, clone SN3), APC anti-human CD47 (BioLegend, Cat #323124, clone CC2C6), APC anti-human § 2-microglobulin (BioLegend, Cat #395711, clone […]), PE anti-human HLA-A2 (MHC-class I) (BioLegend, Cat #343305, clone BB7.2), APC anti-human CD11b (BioLegend, Cat #982604, clone ICRF44), APC anti-mouse F4/80 antibody (BioLegend, Cat #123116, clone BM8), APC-streptavidin (Thermo Fisher Scientific, Cat #SA1005, 1:100 dilution), PE anti-Calreticulin (Invitrogen, Catalog #MA5-15382, 1:200 dilution). For intracellular staining, cells were fixed with 1% paraformaldehyde for 5 min and permeabilized using the True-Nuclear Transcription Factor Buffer Set (BioLegend, Cat #424401) before the addition of the antibody. Small Molecule Inhibitor and Drug Treatments: OVCAR8 or SKOV3 cells were treated for 3 days with bestatin (Ubenimex) (SelleckChem, Cat #S1591) at 5, 10 or 20 μM (as indicated in the figure legends), Tosedostat (Medchem Express, Cat #HY-14807) at 5 μM or 10 μM (as indicated in the figure legends) or ARM-1 (Medchem Express, Cat #HY-W027340) at 1, or 2 μM (as indicated in the figure legends). Inhibitors were replenished every 24 hours. DMSO (Sigma Aldrich, Cat #D8418) was used as a vehicle. OVCAR8 cells were treated with Docetaxel (SelleckChem, Cat #S1148) at 100 nM or Carboplatin (SelleckChem, Cat #S1215 at 100 nM or Doxorubicin (SelleckChem, Cat #E2516) at 50 nM for 12 hours.

OVCAR8 cells = test: In vitro phagocytosis assay of OVCAR8 cells by PBMC-derived M2 macrophages; conditions: OVCAR8; bestatin 20 μM, tosedostat 20 μM, ARM1 2 μM; vs DMSO
Description: Macrophage Generation and Stimulation: Primary human donor-derived macrophages were generated as described previously (Martinez, Curr Protocol Immunol 2012, Chapter 14:14.28.1-14.28.23). In brief, Leukopaks from anonymous donors were obtained from the Rhode Island Blood (Providence, RI) and peripheral blood […] (PBMCs) were isolated by density gradients centrifugation using Ficoll Paque Plus (Sigma-Aldrich, Cat #17-1440-02) followed by RBC lysis using RBC lysis buffer (eBioscience, Cat #00-4333-57). For monocyte isolation, PBMCs were incubated in Monocyte Attachment Medium (Sigma-Aldrich, Cat #C-28051) for 1 hour at 37° C. and 5% CO2 and then washed three times in Iscove's Modified Dulbecco's Medium (IMDM) (Gibco, Cat #12440053) to remove non-adherent cells. The remaining monocytes were detached and seeded in 96-well plates and cultured at 37° C. and 5% CO2 in IMDM supplemented with 10% FBS (Atlanta Biologicals, Cat #S11550) and 20 ng/ml recombinant human M-CSF (Peprotech, Cat #AF-300-25). After 4 days monocytes were then treated with 20 ng/ml recombinant human IL-4 (Peprotech, Cat #200-04) and 10 ng/mL recombinant human IL-10 (PeproTech, Cat #200-10) for another 3-4 days to obtain M2 polarized macrophages. Macrophage differentiation was confirmed morphologically using microscopy. M2-macrophage polarization was confirmed by immunophenotyping of the M2 marker CD206 using PE-conjugated anti-human anti-CD206 antibody (BioLegend, Cat #321106, clone 15-2, 1:100 dilution). In vitro Phagocytosis Assays: To facilitate the quantification of phagocytic events, we adapted a microscopy-based fluorescence phagocytosis […] al., J Immunol Methods 2009, 342(1-2):71-7; Lindner et al., Biotechniques 2020, 68(5):245-250) for use with a Celigo imaging cytometer. […] Cells were incubated with pHrodo Red, SE (Invitrogen, Cat #P36600) on ice for 30 min and then co-cultured with PBMC-derived M2 macrophages (prepared as described above) at a ratio of 1:2 (OVCAR8/B cells: macrophages) for 2 hours in a humidified 5% CO2 incubator at 37° C. Phagocytic events were quantified by counting the number of red fluorescent (pHrodo+) cells per well using a Celigo Imaging Cytometer (Nexcelom). EmGFP was used for the visualization of cancer cells in imaging Phagocytic events were also quantified using a previously-described flow cytometry-based assay (Barkal et al., Nature 2019, 572(7769):392-396; […] et al., Biomedicines 2022, 10(5):1175). In brief, M2 macrophages co-cultured with OVCAR8/EmGFP-luc cells were detached using TrypLE Express (GibcoTM, cat #12604013), stained with APC anti-human CD11b clone ICRF44 (BioLegend, Cat #982604) and analyzed by flow cytometry (BioRad ZE5). Double-positive EmGFP+CD11b+ cells were considered phagocytic events.

Compound | CALR cell surface expression [1] | CD24 cell surface expression (MFI) [2] | macrophage-mediated phagocytosis (OVCAR8 cells)
COc1cccc2c1C(=O)c1c(O)c3c(c(O)c1C2=O)C[C@@](O)(C(=O)CO)C[C@@H]3O[C@H]1C[C@H](N)[C@H](O)[C@H](C)O1 [doxorubicin] | did not |  | 
N.N.O=C([O-])C1(C(=O)[O-])CCC1.[Pt+2] [carboplatin] | did not |  | 
Nc1nc(-c2ccc(Cc3ccccc3)cc2)cs1 [ARM1] |  | decreased | increased
CC(=O)O[C@@]12CO[C@@H]1C[C@H](O)[C@@]1(C)C(=O)[C@H](O)C3=C(C)[C@@H](OC(=O)[C@H](O)[C@@H](NC(=O)OC(C)(C)C)c4ccccc4)C[C@@](O)([C@@H](OC(=O)c4ccccc4)[C@H]21)C3(C)C [docetaxel] | induced robust |  | 

From patent US20260209777A1, “TARGETING GLYCOSYLPHOSPHATIDYLINOSITOL (GPI) PATHWAY PROTEINS TO TREAT OVARIAN CANCER” (UNIVERSITY OF MASSACHUSETTS, priority 2023, published 2026)
